The text below walks through data of patent publication US11497751B2, “Modulators of Rho-associated protein kinase” (Redx Pharma PLC, priority 2018, dated 2022).

A value given as a limit tells only on which side of the number the result lay.

T1 sequence (O75116 11-552): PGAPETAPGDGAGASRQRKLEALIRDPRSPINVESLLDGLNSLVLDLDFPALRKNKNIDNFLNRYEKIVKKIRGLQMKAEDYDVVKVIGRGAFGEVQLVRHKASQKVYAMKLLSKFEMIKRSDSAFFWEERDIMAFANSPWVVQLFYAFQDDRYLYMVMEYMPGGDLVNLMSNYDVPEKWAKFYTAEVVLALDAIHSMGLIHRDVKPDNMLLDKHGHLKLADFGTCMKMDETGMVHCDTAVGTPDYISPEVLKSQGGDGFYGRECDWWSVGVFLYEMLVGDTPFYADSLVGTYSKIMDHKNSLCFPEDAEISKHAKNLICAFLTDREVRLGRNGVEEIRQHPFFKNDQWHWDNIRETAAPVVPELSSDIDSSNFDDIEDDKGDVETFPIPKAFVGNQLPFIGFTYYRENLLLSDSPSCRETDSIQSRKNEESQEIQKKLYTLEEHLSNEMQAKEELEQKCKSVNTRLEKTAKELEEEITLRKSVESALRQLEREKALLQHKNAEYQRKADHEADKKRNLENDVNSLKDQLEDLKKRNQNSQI

This test concerns the target T1, N-terminal 6His-tagged ROCK2 catalytic domain 11-552 (Homo sapiens, UniProt O75116).
T1 construct: N-terminal 6His-tagged ROCK2 catalytic domain 11-552; 6His (N); purchased Dundee University, UK; host or cells: baculovirus expression system
The test is described as follows: ROCK2 binding activity: ROCK2 inhibition, ADP-Glo Kinase Assay. The conditions noted are these: 1.25 nM ROCK2, 100 μM long S6 peptide, 20 μM ATP; 1 hour pre-incubation; read-out: ADP-Glo kinase activity assay ROCK2 Category. The format is biochemical. The method, boiled down: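 1.25 nM baculovirus-expressed ROCK2 pre-incubated 1 h with compound (1% DMSO), then 100 μM long S6 peptide and 20 μM ATP added for 1 h; 50 mM HEPES pH 7.5, 10 mM Mg acetate, 1 mM DTT. ADP-Glo luminescence; IC50 from four-parameter logistic fit.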
(In ADP-Glo the light output rises with the ADP produced.)
Regarding `COc1cc(-c2nc(Nc3ccc4[nH]ncc4c3C3CC3)n(C)n2)ccc1C(=O)NC1CCN(CC(F)(F)F)C1` (stereo not shown) [Example 376], the IC50 is less than 300 nM.
The same measure for `Cn1nc(-c2ccc3c(c2)CCNC3=O)nc1Nc1ccc2[nH]ncc2c1C1CC1` [Example 377]: less than 300 nM; for `Cn1nc(-c2ccc(C(=O)NCC(F)(F)F)nc2)nc1Nc1ccc2[nH]ncc2c1C1CC1` [Example 378]: less than 300 nM; for `COc1cc(-c2nc(Nc3ccc4[nH]ncc4c3C3CC3)n(C)n2)cnc1C(=O)NC1CC1` [Example 379]: 300 to 3000 nM.
With `Cn1nc(-c2ccc(C(=O)NC3CC3)c(F)c2)nc1Nc1ccc2[nH]ncc2c1C1CC1` [Example 380] the figure was less than 300 nM; with `Cn1nc(-c2ccc3c(c2)COC3=O)nc1Nc1ccc2[nH]ncc2c1C1CC1` [Example 381], less than 300 nM.
With `COc1cc(-c2nc(Nc3ccc4[nH]ncc4c3C3CC3)n(C)n2)ccc1C(=O)NC1CC1` [Example 383] the figure was less than 300 nM; with `Cn1nc(-c2ccc(C(N)C(F)(F)F)cc2)nc1Nc1ccc2[nH]ncc2c1C1CC1` (stereo not shown) [Example 384], 300 to 3000 nM; with `Cn1nc(-c2ccc(CNS(C)(=O)=O)cc2)nc1Nc1ccc2[nH]ncc2c1C1CC1` [Example 385], less than 300 nM.
`CCNC(c1ccc(-c2nc(Nc3ccc4[nH]ncc4c3C3CC3)n(C)n2)cc1)C(F)(F)F` (stereo not shown) [Example 386]: the IC50 lay in the range of 300 to 3000 nM.
Regarding `CCNC(=O)c1ccc(-c2nc(Nc3ccc4[nH]ncc4c3C3CC3)n(C)n2)cc1F` [Example 387], the IC50 is less than 300 nM.
`CCNC(c1ccc(-c2nc(Nc3ccc4[nH]ncc4c3C3CC3)n(C)n2)cc1)C(F)F` (stereo not shown) [Example 388]: the IC50 is 300 to 3000 nM.
With `Cn1nc(-c2ccc3c(c2)CNCC3)nc1Nc1ccc2[nH]ncc2c1C1CC1` [Example 389] the figure was 3000 to 10000 nM; with `Cn1nc(-c2ccc(-c3ccccn3)cc2)nc1Nc1ccc2[nH]ncc2c1C1CC1` [Example 390], less than 300 nM.
The same measure for `CCC(=O)N1CCc2cc(-c3nc(Nc4ccc5[nH]ncc5c4C4CC4)n(C)n3)ccc2C1` [Example 391]: less than 300 nM.
With `Cn1nc(-c2ccncc2)nc1Nc1ccc2[nH]ncc2c1C1CC1` [Example 392] the figure was 300 to 3000 nM; with `CCNC(=O)c1ccc(-c2nc(Nc3ccc4[nH]ncc4c3)n(C)n2)cc1C` [Example 394], 300 to 3000 nM; with `CCNC(=O)c1ccc(-c2nc(Nc3ccc4[nH]ncc4c3)n(C)n2)c(OC)c1` [Example 395], less than 300 nM.
Take `Cc1cc(-c2nc(Nc3ccc4[nH]ncc4c3)n(C)n2)ccc1OCC(=O)NC(C)C` [Example 396]: the IC50 was less than 300 nM.
`CC(C)NC(=O)COc1ccc(-c2nc(Nc3ccc4[nH]ncc4c3)n(C)n2)cc1C(F)(F)F` [Example 397]: the IC50 was less than 300 nM.
The same measure for `CCNC(=O)c1ccc(-c2nc(Nc3ccc4[nH]ncc4c3)n(C)n2)cc1C(F)(F)F` [Example 398]: 3000 to 10000 nM.
The same measure for `CCNC(=O)c1ccc(-c2nc(Nc3ccc4[nH]ncc4c3)n(C)n2)c(C)c1` [Example 399]: less than 300 nM.
With `CC(C)NC(=O)COc1ccc(-c2nc(Nc3ccc4[nH]ncc4c3)n(C)n2)cc1C#N` [Example 400] the figure was less than 300 nM; with `Cc1cc(OCC(=O)NC(C)C)ccc1-c1nc(Nc2ccc3[nH]ncc3c2)n(C)n1` [Example 401], less than 300 nM; with `CC(C)NC(=O)COc1ccc(-c2nc(Nc3ccc4[nH]ncc4c3)n(C)n2)c(C(F)(F)F)c1` [Example 402], less than 300 nM.
For `CC(C)NC(=O)COc1ccc(-c2nc(Nc3ccc4[nH]ncc4c3)n(C)n2)c(C#N)c1` [Example 403], the IC50 was less than 300 nM.
With `COc1cc(OCC(=O)NC(C)C)ccc1-c1nc(Nc2ccc3[nH]ncc3c2)n(C)n1` [Example 404] the figure was less than 300 nM.
With `CC(C)NC(=O)COc1ccc(-c2nc(Nc3ccc4[nH]ncc4c3)n(C)n2)c(F)c1` [Example 405] the figure was less than 300 nM; with `CCNC(=O)c1ccc(-c2nc(Nc3ccc4[nH]ncc4c3)n(C)n2)c(F)c1` [Example 406], less than 300 nM.
The same measure for `CC(C)NC(=O)COc1ccc(-c2nc(Nc3ccc4[nH]ncc4c3)n(C)n2)c(Cl)c1` [Example 407]: less than 300 nM; for `CCNC(=O)c1ccc(-c2nc(Nc3ccc4[nH]ncc4c3)n(C)n2)c(C(F)(F)F)c1` [Example 408]: 300 to 3000 nM; for `CCNC(=O)c1cc(F)c(-c2nc(Nc3ccc4[nH]ncc4c3)n(C)n2)cc1F` [Example 409]: less than 300 nM.
As for `CCNC(=O)c1c(F)cc(-c2nc(Nc3ccc4[nH]ncc4c3)n(C)n2)cc1F` [Example 410], the IC50 was in the range of 300 to 3000 nM.
The same measure for `CC(C)NC(=O)COc1ccc(-c2nc(Nc3ccc4[nH]ncc4c3)n(C)n2)c(F)c1F` [Example 411]: less than 300 nM.
The same measure for `CCNC(=O)c1ccc(-c2nc(Nc3ccc4[nH]ncc4c3)n(C)n2)cc1C#N` [Example 412]: less than 300 nM; for `CCNC(=O)c1cc(F)c(-c2nc(Nc3ccc4[nH]ncc4c3)n(C)n2)c(F)c1` [Example 413]: less than 300 nM.
Consider `CN1CCc2cc(-c3nc(Nc4ccc5[nH]ncc5c4)n(C)n3)ccc2C1` [Example 414], for which the IC50 fell in the range of 3000 to 10000 nM.
The same measure for `CC(C)NC(=O)COc1c(F)cc(-c2nc(Nc3ccc4[nH]ncc4c3)n(C)n2)cc1F` [Example 415]: less than 300 nM; for `CC(C)NC(=O)COc1cc(F)c(-c2nc(Nc3ccc4[nH]ncc4c3)n(C)n2)cc1F` [Example 416]: less than 300 nM.
The same measure for `Cc1cc(-c2nc(Nc3ccc4[nH]ncc4c3C)n(C)n2)ccc1C(=O)NCC(F)(F)F` [Example 417]: less than 300 nM; for `Cc1c(Nc2nc(-c3ccc(C(=O)NCC(F)(F)F)nc3)nn2C)ccc2[nH]ncc12` [Example 418]: 300 to 3000 nM.
With `Cc1c(Nc2nc(-c3ccc(C(=O)NCC(F)(F)F)c(F)c3F)nn2C)ccc2[nH]ncc12` [Example 419] the figure was less than 300 nM; with `COc1cc(-c2nc(Nc3ccc4[nH]ncc4c3C)n(C)n2)cnc1C(=O)NC1CC1` [Example 420], 300 to 3000 nM.
As to `Cc1c(Nc2nc(-c3ccc(C(=O)NCC(F)(F)F)cc3)nn2C)ccc2[nH]ncc12` [Example 421], the IC50 was less than 300 nM.
With `Cc1c(Nc2nc(-c3ccc(C(N)C(F)(F)F)cc3)nn2C)ccc2[nH]ncc12` (stereo not shown) [Example 422] the figure was greater than 10000 nM; with `CCc1c(Nc2nc(-c3ccc(C(=O)NCC(F)(F)F)cc3)nn2C)ccc2[nH]ncc12` [Example 423], less than 300 nM; with `CCc1c(Nc2nc(-c3ccc(C(=O)NCC(F)(F)F)c(C)c3)nn2C)ccc2[nH]ncc12` [Example 424], less than 300 nM.
With `CC(C)c1c(Nc2nc(-c3ccc(C(=O)NCC(F)(F)F)cc3)nn2C)ccc2[nH]ncc12` [Example 425], the IC50 fell in the range of 300 to 3000 nM.
The same measure for `C=Cc1c(Nc2nc(-c3ccc(C(=O)NCC)cc3)nn2C)ccc2[nH]ncc12` [Example 426]: less than 300 nM; for `Cc1n[nH]c2ccc(Nc3nc(-c4ccc(C(=O)NCC(F)(F)F)cc4)nn3C)cc12` [Example 427]: less than 300 nM; for `Cn1nc(-c2ccc(C(=O)NCC(F)(F)F)cc2)nc1Nc1ccc2[nH]nc(F)c2c1` [Example 428]: less than 300 nM.
The same measure for `COc1cc(-c2nc(Nc3ccc4[nH]nc(Cl)c4c3)n(C)n2)ccc1C(=O)NCC(F)(F)F` [Example 429]: less than 300 nM.
